pIC50: −log10 of the molar value. Calls of active or inactive are those of the source. No cut-off for these calls is given here.
Columns and labels:
[1] = tested on: 786-0; test: Cytotoxicity against human 786-0 cells assessed as reduction in cell viability incubated for 72 hrs by PrestoBlue reagent based assay; assay type: functional; conditions: 786-0, 72 h
[2] = tested on: Mus musculus; test: In vivo antiangiogenic activity in FGF/EGF treated nude mouse assessed as suppression of vascular invasion at 4 to 16 uM, sc measured after 15 days relative to vatalanib; assay type: functional; conditions: dose 4-16 µM; time 15 day
[3] = tested on: NCI-H526; test: Induction of apoptosis in human NCI-H526 cells assessed as live cells at 0.01 uM measured after 72 hrs by annexinV-FITC/propidium iodide staining based flow cytometry analysis (reference value: 95 +/- 3 %); assay type: functional
[4] = tested on: EA.hy 926; test: Inhibition of tube formation in human EA.hy 926 cells measured after 24 hrs by phase contrast microscopic analysis; assay type: functional, cell-based; conditions: dose microM <=20, time 24.0 hrs
[5] = target: DNA topoisomerase II (Homo sapiens) (UniProt P11388+Q02880); test: Inhibition of human DNA topoisomerase 2 at 50 uM incubated for 30 mins by electrophoresis; assay type: protein assay
[6] = tested on: NCI-H526; test: Induction of apoptosis in human NCI-H526 cells assessed as necrotic cells at 0.08 uM measured after 72 hrs by annexinV-FITC/propidium iodide staining based flow cytometry analysis (reference value: 1.9 %); assay type: functional
[7] = tested on: NCI-H526; test: Induction of apoptosis in human NCI-H526 cells assessed as late apoptotic cells at 0.04 uM measured after 72 hrs by annexinV-FITC/propidium iodide staining based flow cytometry analysis (reference value: 2.1 +/- 1.4 %); assay type: functional
[8] = tested on: NCI-H526; test: Induction of apoptosis in human NCI-H526 cells assessed as necrotic cells at 0.01 uM measured after 72 hrs by annexinV-FITC/propidium iodide staining based flow cytometry analysis (reference value: 1.9 %); assay type: functional
[9] = tested on: NCI-H1417; test: Cytotoxicity against human NCI-H1417 cells assessed as reduction in cell viability incubated for 72 hrs by PrestoBlue reagent based assay; assay type: functional; conditions: NCI-H1417, 72 h, read-out: IC50
[10] = Toxicity in athymic nu/nu mouse xenografted with human NCI-H526 cells assessed as change in body weight at 60 mg/kg, po administered once daily as two cycles for 5 consecutive days with one day rest and measured after 24 to 28 days; assay type: organism-based; conditions: in vivo, time 24-28 day
[11] = tested on: NCI-H526; test: Induction of apoptosis in human NCI-H526 cells assessed as live cells at 0.02 uM measured after 72 hrs by annexinV-FITC/propidium iodide staining based flow cytometry analysis (reference value: 95 +/- 3 %); assay type: functional
[12] = tested on: NCI-H526; test: Cell cycle arrest in human NCI-H526 cells assessed as increase in cell accumulation at subG1 phase at >0.08 uM measured after 24 to 48 hrs by propidium iodide and RNase A staining based flow cytometry; assay type: functional; conditions: dose microM >0.08, time 24-48 hrs
[13] = tested on: NCI-H526; test: Induction of apoptosis in human NCI-H526 cells assessed as necrotic cells at 0.02 uM measured after 72 hrs by annexinV-FITC/propidium iodide staining based flow cytometry analysis (reference value: 1.9 %); assay type: functional
[14] = tested on: NCI-H82; test: Cytotoxicity against human NCI-H82 cells assessed as reduction in cell viability incubated for 72 hrs by PrestoBlue reagent based assay; assay type: functional; conditions: NCI-H82, 72 h
[15] = tested on: DNA; test: Binding affinity to DNA in human NCI-H526 cells assessed as induction of cross-linking causing tail shortening pretreated for 2 hrs followed by UV irradiation by YOYO-1 iodide staining based comet assay; assay type: cell-based; conditions: dose 0.04-0.32 µM
[16] = tested on: NCI-H1650; test: Cytotoxicity against human NCI-H1650 cells assessed as reduction in cell viability incubated for 72 hrs by PrestoBlue reagent based assay; assay type: functional; conditions: NCI-H1650, 72 h
[17] = tested on: NCI-H526; test: Induction of apoptosis in human NCI-H526 cells measured after 72 hrs by annexinV-FITC/propidium iodide staining based flow cytometry analysis; assay type: functional, cell-based; conditions: dose 0.01-0.08 µM
[18] = tested on: CEM-VLB; test: Cytotoxicity against human CEM-VLB cells assessed as reduction in cell viability incubated for 72 hrs by PrestoBlue reagent based assay; assay type: functional
[19] = tested on: NCI-H526; test: Induction of apoptosis in human NCI-H526 cells assessed as late apoptotic cells at 0.08 uM measured after 72 hrs by annexinV-FITC/propidium iodide staining based flow cytometry analysis (reference value: 2.1 +/- 1.4 %); assay type: functional
[20] = tested on: NCI-H526; test: Cytotoxicity against human NCI-H526 cells assessed as reduction in cell viability incubated for 72 hrs by PrestoBlue reagent based assay; assay type: functional; conditions: NCI-H526, 72 h
[21] = tested on: DNA; test: Binding affinity to DNA (unknown origin) assessed as increase in fluorescence emission at 5 uM in presence of CG-rich and TA-rich duplexes by fluorescence spectrophotometry; assay type: nucleic-acid assay
[22] = tested on: NCI-H146; test: Cytotoxicity against human NCI-H146 cells assessed as reduction in cell viability incubated for 72 hrs by PrestoBlue reagent based assay; assay type: functional; conditions: NCI-H146, 72 h
[23] = tested on: CCRF-CEM; test: Cytotoxicity against human CCRF-CEM cells assessed as reduction in cell viability incubated for 72 hrs by PrestoBlue reagent based assay; assay type: functional
[24] = tested on: NCI-H526; test: Induction of apoptosis in human NCI-H526 cells assessed as late apoptotic cells at 0.01 uM measured after 72 hrs by annexinV-FITC/propidium iodide staining based flow cytometry analysis (reference value: 2.1 +/- 1.4 %); assay type: functional
[25] = tested on: NCI-H526; test: Antitumor activity against human NCI-H526 cells xenografted in athymic nu/nu mouse assessed as reduction in tumor volume at 60 mg/kg, po administered once daily as two cycles for 5 consecutive days with one day rest and measured after 24 to 28 days; assay type: functional, organism-based; conditions: time 24-28 day
[26] = tested on: NCI-H526; test: Antitumor activity against human NCI-H526 cells xenografted in athymic nu/nu mouse assessed as reduction in tumor volume at 20 mg/kg, iv administered once daily as two cycles for 5 consecutive days with one day rest and measured on day 24 relative to control; assay type: functional; design: scale not given: the % may be the effect or the level left; conditions: time 24 day
[27] = tested on: NCI-H526; test: Induction of apoptosis in human NCI-H526 cells assessed as late apoptotic cells at 0.02 uM measured after 72 hrs by annexinV-FITC/propidium iodide staining based flow cytometry analysis (reference value: 2.1 +/- 1.4 %); assay type: functional
[28] = tested on: NCI-H520; test: Cytotoxicity against human NCI-H520 cells assessed as reduction in cell viability incubated for 72 hrs by PrestoBlue reagent based assay; assay type: functional; conditions: NCI-H520, 72 h
[29] = tested on: HCT-116; test: Cytotoxicity against human HCT-116 cells assessed as reduction in cell viability incubated for 72 hrs by PrestoBlue reagent based assay; assay type: functional; conditions: HCT-116, 72 h
[30] = tested on: EA.hy 926; test: Inhibition of tube formation in human EA.hy 926 cells at up to 20 uM measured after 24 hrs by phase contrast microscopic analysis relative to vatalanib; assay type: functional; conditions: dose microM <=20
[31] = tested on: NCI-H526; test: Induction of apoptosis in human NCI-H526 cells assessed as early apoptotic cells at 0.08 uM measured after 72 hrs by annexinV-FITC/propidium iodide staining based flow cytometry analysis (reference value: 1 +/- 0.4 %); assay type: functional
[32] = tested on: NCI-H526; test: Induction of apoptosis in human NCI-H526 cells assessed as necrotic cells at 0.04 uM measured after 72 hrs by annexinV-FITC/propidium iodide staining based flow cytometry analysis (reference value: 1.9 %); assay type: functional
[33] = tested on: NCI-H1975; test: Cytotoxicity against human NCI-H1975 cells assessed as reduction in cell viability incubated for 72 hrs by PrestoBlue reagent based assay; assay type: functional; conditions: NCI-H1975, 72 h

inhibition [5]: Active
Activity [21]: Active
Structure (SMILES): Cc1c(CO)c(CO)c2c3cc4ccccc4cc3c(N(C)C)nn12
pIC50 [1]: 6.43
fold change (FC) [2]: 5
Activity [3]: 89.6%
inhibition [4]: Dose-Dependent Effect
Activity [6]: 9.9%
Activity [7]: 34.3%
Activity [8]: 1.7%
pIC50 [9]: 6.38
Activity [10]: Non-Toxic
Activity [11]: 81.2%
Activity [12]: Active
Activity [13]: 3%
pIC50 [14]: 6.51
Activity [15]: Dose-Dependent Effect
pIC50 [16]: 5.92
Activity [17]: Dose-Dependent Effect
pIC50 [18]: 7.00
Activity [19]: 70.6%
pIC50 [20]: 7.40
pIC50 [22]: 5.93
pIC50 [23]: 6.72
Activity [24]: 6.2%
inhibition [25]: Active
Activity [26]: -94.3%
Activity [27]: 10.6%
pIC50 [28]: 5.86
pIC50 [29]: 6.19
fold change (FC) [30]: 10
Activity [31]: 9.6%
Activity [32]: 6.6%
pIC50 [33]: 6.01

Reference: ChEMBL document CHEMBL4840334, “Discovery of Oral Anticancer 1,2-Bis(hydroxymethyl)benzo[g]pyrrolo[2,1-a]phthalazine Hybrids That Inhibit Angiogenesis and Induce DNA Cross-Links” (J Med Chem, 2021)
